The results in this text go back to patent US12691175B2, “Drug transdermal delivery system” (Xiamen University, priority 2019, dated 2026).

A short description of series [1]: Staining of topical penetration sites of the skin with gentian violet solution. The arrangement: species or system nude mouse. On the procedure: Staining of topical penetration sites of the skin: the nude mouse skin topically pretreated by three groups, including the sonophoresis group, the 2 mg spicule group, and the group using sonophoresis and then using the spicules (the method is the same as the aforementioned method), a gentian violet solution is added into the donor compartment, stained for 24 hours, and washed by an ethanol solution, and the residue liquid on the surface is absorbed with absorbent paper, a penetration situation of a surface of the stratum corneum layer for the staining solution is observed, the stratum corneum layer and the epidermal layer of the skin are then scrapped by a blade, and a penetration situation of the dermis layer for the staining solution is observed.

The next series deals with venous thrombus. Kind of series: Rabbit ear thrombus model, topical low-molecular-weight heparin therapy. The class given is in vivo, New Zealand rabbit. The following applies: 48 hours; for state of thrombus in blood vessel (slice, FIG. 7): 300 U/kg topical. How it is done: An experimental method: • A topical injection of thrombin is used to establish an animal model of a rabbit ear thrombus: hair of an ear of the New Zealand rabbit is carefully shaven off, a blood vessel section from an external ear vein with a length of about 2 cm and having fewer branches is selected, 40 U of the thrombin is injected into the blood vessel section, and a hemostatic clip is used to block a blood flow of the blood vessel section at a proximal end of a heart. After 2 hours, the blood is completely coagulated to form a venous thrombus, and the hemostatic clip is then loosen. A length of the venous thrombus is measured and recorded, and the rabbit ear successfully modeled is sliced into a slice by the cryostat microtome. After the slice is stained by a hematoxylin and eosin (HE) tissue staining method and fixed by the resin, and the slice is mounted for observation. With respect to the various administration methods, the rabbits successfully modeled are divided into a therapy group for a proximal venous thrombus and a therapy group for a distal venous thrombus, and the rabbits are topically treated by the low-molecular-weight heparin (300 U/kg rabbit body weight) for therapy. […] A pretreatment method is the same as described with respect to in vitro.

Turning to `CN(C)c1ccc(C(=C2C=CC(=[N+](C)C)C=C2)c2ccc(N(C)C)cc2)cc1` [staining solution, gentian violet], the “infiltration of staining solution into the dermis layer” value is reported as “almost no residue staining solution in the dermis layer” in series [1] (sonophoresis alone or spicules alone, stained 24 hours (FIGS. 6D and 6E)); “a large amount of the staining solution can still infiltrate into the dermis layer” in series [1] (sonophoresis and spicules, stained 24 hours, stratum corneum and epidermal layer scraped off (FIG. 6F)).

Regarding “dalteparin [low-molecular-weight heparin]”, the “state of thrombus in blood vessel (slice, FIG. 7)” value with venous thrombus (sonophoresis then spicules) was “almost completely dissolved”; in the series on venous thrombus (spicules alone), “not completely dissolved”. Moreover, the “thrombus dissolvability degree compared with intravenous injection (FIG. 8B)” value in the series with venous thrombus (distal venous thrombus, sonophoresis then spicules at distal end) is “no significant difference”. The “thrombus length variation (FIG. 8A)” value with venous thrombus (proximal venous thrombus, sonophoresis then spicules) is reported as “basically dissolved”.
